Experimental data: the NIST ThermoML archive (doi:10.1021/je400056z)

Test: xn = mol fraction of the nth substance listed
Settings: Liquid, Vibrating tube method

CCCCCCC [heptane] + O=C=O
Settings	mass density [kg/m3]
332.8 K, 25003 kPa, x2 = 0.0218	677.55
332.83 K, 6993 kPa, x2 = 0.5085	682.63
332.83 K, 8019 kPa, x2 = 0.5085	685.45
332.83 K, 9012 kPa, x2 = 0.5085	688
332.83 K, 10004 kPa, x2 = 0.5085	690.4
332.83 K, 11006 kPa, x2 = 0.5085	692.81
332.83 K, 12005 kPa, x2 = 0.5085	695.15
332.83 K, 13003 kPa, x2 = 0.5085	697.36
332.83 K, 13999 kPa, x2 = 0.5085	699.53
332.83 K, 15005 kPa, x2 = 0.5085	701.72
332.83 K, 16003 kPa, x2 = 0.5085	703.82
332.83 K, 17000 kPa, x2 = 0.5085	706.1
332.83 K, 18006 kPa, x2 = 0.5085	708.26
332.83 K, 19000 kPa, x2 = 0.5085	710.51
332.83 K, 20000 kPa, x2 = 0.5085	712.6
332.83 K, 20991 kPa, x2 = 0.5085	714.75
332.83 K, 22000 kPa, x2 = 0.5085	716.83
332.83 K, 23003 kPa, x2 = 0.5085	718.86
332.83 K, 24000 kPa, x2 = 0.5085	720.81
332.83 K, 25002 kPa, x2 = 0.5085	722.78
342.59 K, 5015 kPa, x2 = 0.3148	660.43
342.59 K, 6006 kPa, x2 = 0.3148	662.35
342.59 K, 7008 kPa, x2 = 0.3148	664.12
342.59 K, 8003 kPa, x2 = 0.3148	665.96
342.59 K, 9023 kPa, x2 = 0.3148	667.75
342.59 K, 10000 kPa, x2 = 0.3148	669.58
342.59 K, 11004 kPa, x2 = 0.3148	671.39
342.59 K, 11999 kPa, x2 = 0.7514	668.27
342.59 K, 12012 kPa, x2 = 0.3148	673.16
342.59 K, 13009 kPa, x2 = 0.3148	674.92
342.59 K, 13078 kPa, x2 = 0.7514	677.39
342.59 K, 14002 kPa, x2 = 0.7514	684.02
342.59 K, 14006 kPa, x2 = 0.3148	676.58
342.59 K, 14980 kPa, x2 = 0.7514	690.44
342.59 K, 15007 kPa, x2 = 0.3148	678.19
342.59 K, 16000 kPa, x2 = 0.3148	679.78
342.59 K, 16000 kPa, x2 = 0.7514	696.41
342.59 K, 17006 kPa, x2 = 0.7514	701.98
342.59 K, 17008 kPa, x2 = 0.3148	681.37
342.59 K, 18003 kPa, x2 = 0.7514	707.17
342.59 K, 18004 kPa, x2 = 0.3148	682.88
342.59 K, 18988 kPa, x2 = 0.7514	711.38
342.59 K, 19000 kPa, x2 = 0.3148	684.38
342.59 K, 20000 kPa, x2 = 0.3148	685.86
342.59 K, 20006 kPa, x2 = 0.7514	716.85
342.59 K, 21010 kPa, x2 = 0.7514	721.31
342.59 K, 21018 kPa, x2 = 0.3148	687.3
342.59 K, 22004 kPa, x2 = 0.7514	725.37
342.59 K, 22006 kPa, x2 = 0.3148	688.68
342.59 K, 23009 kPa, x2 = 0.7514	729.36
342.59 K, 23014 kPa, x2 = 0.3148	690.13
342.59 K, 24006 kPa, x2 = 0.7514	733.15
342.59 K, 24010 kPa, x2 = 0.3148	691.48
342.59 K, 24951 kPa, x2 = 0.7514	736.71
342.59 K, 25016 kPa, x2 = 0.3148	692.87
342.68 K, 4004 kPa, x2 = 0.0218	646.95
342.68 K, 5003 kPa, x2 = 0.0218	648.26
342.68 K, 6004 kPa, x2 = 0.0218	649.55
342.68 K, 7009 kPa, x2 = 0.0218	650.86
342.68 K, 7996 kPa, x2 = 0.0218	652.09
342.68 K, 9017 kPa, x2 = 0.0218	653.32
342.68 K, 9997 kPa, x2 = 0.0218	654.54
342.68 K, 11003 kPa, x2 = 0.0218	655.71
342.68 K, 11998 kPa, x2 = 0.0218	656.85
342.68 K, 13010 kPa, x2 = 0.0218	657.99
342.68 K, 14002 kPa, x2 = 0.0218	659.11
342.68 K, 15008 kPa, x2 = 0.0218	660.22
342.68 K, 16006 kPa, x2 = 0.0218	661.28
342.68 K, 17003 kPa, x2 = 0.0218	662.36
342.68 K, 18003 kPa, x2 = 0.0218	663.38
342.68 K, 19002 kPa, x2 = 0.0218	664.4
342.68 K, 20005 kPa, x2 = 0.0218	665.4
342.68 K, 21007 kPa, x2 = 0.0218	666.43
342.68 K, 22003 kPa, x2 = 0.0218	667.43
342.68 K, 23010 kPa, x2 = 0.0218	668.42
342.68 K, 24005 kPa, x2 = 0.0218	669.41
342.68 K, 25003 kPa, x2 = 0.0218	670.37
342.71 K, 13106 kPa, x2 = 0.9496	500.65
342.71 K, 13985 kPa, x2 = 0.9496	541.93
342.71 K, 15012 kPa, x2 = 0.9496	579.95
342.71 K, 16000 kPa, x2 = 0.9496	609.5
342.71 K, 17009 kPa, x2 = 0.9496	634.13
342.71 K, 17984 kPa, x2 = 0.9496	654.42
342.71 K, 18996 kPa, x2 = 0.9496	672.31
342.71 K, 19994 kPa, x2 = 0.9496	687.85
342.71 K, 20999 kPa, x2 = 0.9496	701.79
342.71 K, 22001 kPa, x2 = 0.9496	714.18
342.71 K, 23009 kPa, x2 = 0.9496	725.67
342.71 K, 23985 kPa, x2 = 0.9496	735.74
342.71 K, 24518 kPa, x2 = 0.9496	740.87
342.73 K, 8002 kPa, x2 = 0.5085	670.04
342.73 K, 9011 kPa, x2 = 0.5085	673.34
342.73 K, 10003 kPa, x2 = 0.5085	676.47
342.73 K, 11006 kPa, x2 = 0.5085	679.46
342.73 K, 12005 kPa, x2 = 0.5085	682.3
342.73 K, 13011 kPa, x2 = 0.5085	685.03
342.73 K, 14001 kPa, x2 = 0.5085	687.62
342.73 K, 15001 kPa, x2 = 0.5085	690.13
342.73 K, 16006 kPa, x2 = 0.5085	692.58
342.73 K, 17007 kPa, x2 = 0.5085	694.92
342.73 K, 17999 kPa, x2 = 0.5085	697.18
342.73 K, 19004 kPa, x2 = 0.5085	699.4
342.73 K, 20003 kPa, x2 = 0.5085	701.54
342.73 K, 21007 kPa, x2 = 0.5085	703.69
342.73 K, 22001 kPa, x2 = 0.5085	705.73
342.73 K, 23008 kPa, x2 = 0.5085	707.8
342.73 K, 23998 kPa, x2 = 0.5085	709.81
342.73 K, 25003 kPa, x2 = 0.5085	711.79
351.97 K, 7006 kPa, x2 = 0.3148	652.07
351.97 K, 8006 kPa, x2 = 0.3148	654.34
351.97 K, 9004 kPa, x2 = 0.3148	656.45
351.97 K, 10010 kPa, x2 = 0.3148	658.6
351.97 K, 11002 kPa, x2 = 0.3148	660.62
351.97 K, 12003 kPa, x2 = 0.3148	662.65
351.97 K, 13003 kPa, x2 = 0.3148	664.59
351.97 K, 14001 kPa, x2 = 0.3148	666.48
351.97 K, 15008 kPa, x2 = 0.3148	668.29
351.97 K, 15998 kPa, x2 = 0.3148	670.12
351.97 K, 17018 kPa, x2 = 0.3148	671.87
351.97 K, 17988 kPa, x2 = 0.3148	673.47
351.97 K, 19003 kPa, x2 = 0.3148	675.21
351.97 K, 20004 kPa, x2 = 0.3148	676.85
351.97 K, 21004 kPa, x2 = 0.3148	678.45
351.97 K, 22002 kPa, x2 = 0.3148	680.02
351.97 K, 22992 kPa, x2 = 0.3148	681.54
351.97 K, 23999 kPa, x2 = 0.3148	683.05
351.97 K, 25008 kPa, x2 = 0.3148	684.53
352.3 K, 12013 kPa, x2 = 0.7514	641.2
352.3 K, 13001 kPa, x2 = 0.7514	649.87
352.3 K, 14004 kPa, x2 = 0.7514	657.71
352.3 K, 15036 kPa, x2 = 0.7514	665.3
352.3 K, 16003 kPa, x2 = 0.7514	671.66
352.3 K, 17017 kPa, x2 = 0.7514	677.97
352.3 K, 18016 kPa, x2 = 0.7514	683.63
352.3 K, 18998 kPa, x2 = 0.7514	689.01
